The supplement of paper PMC10627819

Key:
Assay in all cases: fitness (endpoint OD595 vs no drug) (fraction); higher = more growth
B. subtilis 168 = test system: B. subtilis 168
Procedure, shortened: (§1)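 Bacterial growth was followed in 384-well plates seeded at OD595 0.01, with 30 µl per well, or 55 µl for S. pneumoniae, in TSB, LB Lennox or CY at 37 °C. OD595 was read every 30 min for 14 h, and each reading had the first reading subtracted as background. Fitness is the background-corrected optical density at entry into stationary phase divided by the robust mean of the no-drug control wells. This ratio is capped at 1.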

S. aureus DSM 20231 = test system: S. aureus DSM 20231
Procedure, shortened: as §1

S. pneumoniae D39V = test system: S. pneumoniae D39V
Procedure, shortened: as §1

CN(C)[C@@H]1C(O)=C(C(N)=O)C(=O)[C@@]2(O)C(O)=C3C(=O)c4c(O)ccc(Cl)c4[C@@](C)(O)[C@H]3C[C@@H]12 [Chlortetracycline] + COc1cccc2c1C(=O)c1c(O)c3c(c(O)c1C2=O)C[C@@](O)(C(=O)CO)C[C@@H]3O[C@H]1C[C@H](N)[C@H](O)[C@H](C)O1 [Doxorubicin]
Settings	fitness
B. subtilis 168, first compound 0.0475 µg/mL, partner 0.625 µg/mL	0.895
B. subtilis 168, first compound 0.0475 µg/mL, partner 1.25 µg/mL	0.845
B. subtilis 168, first compound 0.0475 µg/mL, partner 2.5 µg/mL	0.717
B. subtilis 168, first compound 0.095 µg/mL, partner 0.625 µg/mL	0.789
B. subtilis 168, first compound 0.095 µg/mL, partner 1.25 µg/mL	0.775
B. subtilis 168, first compound 0.095 µg/mL, partner 2.5 µg/mL	0.56
B. subtilis 168, first compound 0.19 µg/mL, partner 0.625 µg/mL	0.44
B. subtilis 168, first compound 0.19 µg/mL, partner 1.25 µg/mL	0.404
B. subtilis 168, first compound 0.19 µg/mL, partner 2.5 µg/mL	0.256
S. aureus DSM 20231, first compound 0.012 µg/mL, partner 0.625 µg/mL	0.632
S. aureus DSM 20231, first compound 0.012 µg/mL, partner 1.25 µg/mL	0.671
S. aureus DSM 20231, first compound 0.012 µg/mL, partner 2.5 µg/mL	0.54
S. aureus DSM 20231, first compound 0.024 µg/mL, partner 0.625 µg/mL	0.346
S. aureus DSM 20231, first compound 0.024 µg/mL, partner 1.25 µg/mL	0.358
S. aureus DSM 20231, first compound 0.048 µg/mL, partner 0.625 µg/mL	0.135
S. aureus DSM 20231, first compound 0.048 µg/mL, partner 1.25 µg/mL	0.1
S. aureus DSM 20231, first compound 0.048 µg/mL, partner 2.5 µg/mL	0.0901
S. pneumoniae D39V, first compound 0.012 µg/mL, partner 0.25 µg/mL	0.829
S. pneumoniae D39V, first compound 0.012 µg/mL, partner 0.5 µg/mL	0.797
S. pneumoniae D39V, first compound 0.012 µg/mL, partner 1 µg/mL	0.714
S. pneumoniae D39V, first compound 0.024 µg/mL, partner 0.25 µg/mL	0.512
S. pneumoniae D39V, first compound 0.024 µg/mL, partner 0.5 µg/mL	0.458
S. pneumoniae D39V, first compound 0.024 µg/mL, partner 1 µg/mL	0.451
S. pneumoniae D39V, first compound 0.048 µg/mL, partner 0.25 µg/mL	0.175
S. pneumoniae D39V, first compound 0.048 µg/mL, partner 0.5 µg/mL	0.221
S. pneumoniae D39V, first compound 0.048 µg/mL, partner 1 µg/mL	0.179
S. pneumoniae D39V, first compound 0.375 µg/mL, partner 0.25 µg/mL	0.0266
S. pneumoniae D39V, first compound 0.375 µg/mL, partner 0.5 µg/mL	0.016
S. pneumoniae D39V, first compound 0.375 µg/mL, partner 1 µg/mL	0.0403
S. pneumoniae D39V, first compound 0.75 µg/mL, partner 0.25 µg/mL	0.031
S. pneumoniae D39V, first compound 0.75 µg/mL, partner 0.5 µg/mL	0.0286
S. pneumoniae D39V, first compound 0.75 µg/mL, partner 1 µg/mL	0.0402
S. pneumoniae D39V, first compound 1.5 µg/mL, partner 0.25 µg/mL	0.0296
S. pneumoniae D39V, first compound 1.5 µg/mL, partner 0.5 µg/mL	0.0259
S. pneumoniae D39V, first compound 1.5 µg/mL, partner 1 µg/mL	0.052

S. aureus DSM 20231, first compound 0.006 µg/mL, one replicate
Settings	fitness
partner 0.625 µg/mL	0.719
partner 1.25 µg/mL	0.685
partner 2.5 µg/mL	0.64

CN(C)[C@@H]1C(O)=C(C(N)=O)C(=O)[C@@]2(O)C(O)=C3C(=O)c4c(O)ccc(Cl)c4[C@@](C)(O)[C@H]3C[C@@H]12 [Chlortetracycline] + C[C@@H]1O[C@@H]1P(=O)(O)O [Fosfomycin]
Settings	fitness
B. subtilis 168, first compound 0.0475 µg/mL, partner 1.562 µg/mL	0.713
B. subtilis 168, first compound 0.0475 µg/mL, partner 3.124 µg/mL	0.636
B. subtilis 168, first compound 0.0475 µg/mL, partner 6.248 µg/mL	0.498
B. subtilis 168, first compound 0.095 µg/mL, partner 1.562 µg/mL	0.629
B. subtilis 168, first compound 0.095 µg/mL, partner 3.124 µg/mL	0.557
B. subtilis 168, first compound 0.095 µg/mL, partner 6.248 µg/mL	0.408
B. subtilis 168, first compound 0.19 µg/mL, partner 3.124 µg/mL	0.336
B. subtilis 168, first compound 0.19 µg/mL, partner 6.248 µg/mL	0.19
S. aureus DSM 20231, first compound 0.012 µg/mL, partner 0.781 µg/mL	0.309
S. aureus DSM 20231, first compound 0.012 µg/mL, partner 1.562 µg/mL	0.145
S. aureus DSM 20231, first compound 0.012 µg/mL, partner 3.124 µg/mL	0.0645
S. aureus DSM 20231, first compound 0.024 µg/mL, partner 0.781 µg/mL	0.154
S. aureus DSM 20231, first compound 0.024 µg/mL, partner 1.562 µg/mL	0.0553
S. aureus DSM 20231, first compound 0.024 µg/mL, partner 3.124 µg/mL	0.0457
S. aureus DSM 20231, first compound 0.048 µg/mL, partner 0.781 µg/mL	0.0506
S. aureus DSM 20231, first compound 0.048 µg/mL, partner 1.562 µg/mL	0.0192
S. aureus DSM 20231, first compound 0.048 µg/mL, partner 3.124 µg/mL	0.0143
S. pneumoniae D39V, first compound 0.012 µg/mL, partner 1.25 µg/mL	0.936
S. pneumoniae D39V, first compound 0.012 µg/mL, partner 2.5 µg/mL	0.881
S. pneumoniae D39V, first compound 0.012 µg/mL, partner 5 µg/mL	0.777
S. pneumoniae D39V, first compound 0.024 µg/mL, partner 1.25 µg/mL	0.629
S. pneumoniae D39V, first compound 0.024 µg/mL, partner 2.5 µg/mL	0.625
S. pneumoniae D39V, first compound 0.024 µg/mL, partner 5 µg/mL	0.628
S. pneumoniae D39V, first compound 0.048 µg/mL, partner 1.25 µg/mL	0.303
S. pneumoniae D39V, first compound 0.048 µg/mL, partner 2.5 µg/mL	0.31
S. pneumoniae D39V, first compound 0.048 µg/mL, partner 5 µg/mL	0.319
S. pneumoniae D39V, first compound 0.375 µg/mL, partner 1.25 µg/mL	0.045
S. pneumoniae D39V, first compound 0.375 µg/mL, partner 2.5 µg/mL	0.0463
S. pneumoniae D39V, first compound 0.375 µg/mL, partner 5 µg/mL	0.0538
S. pneumoniae D39V, first compound 0.75 µg/mL, partner 1.25 µg/mL	0.0544
S. pneumoniae D39V, first compound 0.75 µg/mL, partner 2.5 µg/mL	0.0368
S. pneumoniae D39V, first compound 0.75 µg/mL, partner 5 µg/mL	0.0501
S. pneumoniae D39V, first compound 1.5 µg/mL, partner 1.25 µg/mL	0.0742
S. pneumoniae D39V, first compound 1.5 µg/mL, partner 2.5 µg/mL	0.0712
S. pneumoniae D39V, first compound 1.5 µg/mL, partner 5 µg/mL	0.0865

S. aureus DSM 20231, first compound 0.006 µg/mL, one replicate
Settings	fitness
partner 0.781 µg/mL	0.609
partner 1.562 µg/mL	0.47
partner 3.124 µg/mL	0.205

CN(C)[C@@H]1C(O)=C(C(N)=O)C(=O)[C@@]2(O)C(O)=C3C(=O)c4c(O)ccc(Cl)c4[C@@](C)(O)[C@H]3C[C@@H]12 [Chlortetracycline] + C[n+]1ccc(-c2cc[n+](C)cc2)cc1 [Paraquat]
fitness
Settings	partner 1.25 µg/mL	partner 1.5 µg/mL	partner 2.5 µg/mL	partner 3 µg/mL	partner 5 µg/mL	partner 6 µg/mL
B. subtilis 168, first compound 0.0475 µg/mL	0.92	–	0.877	–	0.839	–
B. subtilis 168, first compound 0.095 µg/mL	0.805	–	0.748	–	0.715	–
B. subtilis 168, first compound 0.19 µg/mL	0.609	–	0.524	–	0.429	–
S. aureus DSM 20231, first compound 0.012 µg/mL	0.568	–	0.597	–	0.574	–
S. aureus DSM 20231, first compound 0.024 µg/mL	0.266	–	0.294	–	0.261	–
S. aureus DSM 20231, first compound 0.048 µg/mL	0.0591	–	0.169	–	0.0904	–
S. pneumoniae D39V, first compound 0.375 µg/mL	–	0.073	–	0.0531	–	0.0597
S. pneumoniae D39V, first compound 0.75 µg/mL	–	0.055	–	0.0649	–	0.0514
S. pneumoniae D39V, first compound 1.5 µg/mL	–	0.048	–	0.0551	–	0.0491

fitness, one replicate
Settings	partner 1.25 µg/mL	partner 1.5 µg/mL	partner 2.5 µg/mL	partner 3 µg/mL	partner 5 µg/mL	partner 6 µg/mL
S. aureus DSM 20231, first compound 0.006 µg/mL	0.72	–	0.718	–	0.704	–
S. pneumoniae D39V, first compound 0.012 µg/mL	–	0.976	–	≥ 1	–	≥ 1
S. pneumoniae D39V, first compound 0.024 µg/mL	–	0.941	–	0.95	–	0.987
S. pneumoniae D39V, first compound 0.048 µg/mL	–	0.852	–	0.868	–	0.875

CN(C)[C@@H]1C(O)=C(C(N)=O)C(=O)[C@@]2(O)C(O)=C3C(=O)c4c(O)ccc(Cl)c4[C@@](C)(O)[C@H]3C[C@@H]12 [Chlortetracycline] + Cc1cc(NS(=O)(=O)c2ccc(N)cc2)no1 [Sulfamethoxazol]
fitness, one replicate
Settings	partner 0.5 µg/mL	partner 1 µg/mL	partner 2 µg/mL	partner 4 µg/mL
B. subtilis 168, first compound 0.0475 µg/mL	0.905	–	–	–
B. subtilis 168, first compound 0.095 µg/mL	0.837	–	–	–
B. subtilis 168, first compound 0.19 µg/mL	0.449	–	–	–
S. aureus DSM 20231, first compound 0.006 µg/mL	–	0.724	0.733	0.761
S. pneumoniae D39V, first compound 0.012 µg/mL	–	0.929	0.951	0.865
S. pneumoniae D39V, first compound 0.024 µg/mL	–	0.851	0.88	0.806
S. pneumoniae D39V, first compound 0.048 µg/mL	–	0.793	0.797	0.743

fitness
Settings	partner 1 µg/mL	partner 2 µg/mL	partner 4 µg/mL
B. subtilis 168, first compound 0.0475 µg/mL	0.9	0.852	0.907
B. subtilis 168, first compound 0.095 µg/mL	0.78	0.725	0.779
B. subtilis 168, first compound 0.19 µg/mL	0.548	0.527	0.5
S. aureus DSM 20231, first compound 0.012 µg/mL	0.509	0.533	0.573
S. aureus DSM 20231, first compound 0.024 µg/mL	0.256	0.234	0.264
S. aureus DSM 20231, first compound 0.048 µg/mL	0.0878	0.0579	0.059
S. pneumoniae D39V, first compound 0.375 µg/mL	0.0312	0.0347	0.0394
S. pneumoniae D39V, first compound 0.75 µg/mL	0.0329	0.0284	0.0259
S. pneumoniae D39V, first compound 1.5 µg/mL	0.0307	0.0374	0.0403
